Laboratory results published in PMC4913735, “Non‐glycosidic compounds can stimulate both human and mouse iNKT cells” (European Journal of Immunology, 2016).

Assays:
[1] = tested on: murine iNKT cells; test: In vivo iNKT‐cell activation in mice: serum IFN‐γ/IL‐4 ELISA and splenic DC maturation; parameters: species or system C57BL/6 mice; conditions: for DC maturation (CD40 on CD11c+ cells) in iNKT cell deficient mice: CD1d−/− mice
Protocol: Figure 2 Enhanced in vivo potency of ThrCer 6. (A) Equilibrium binding and kinetics measurements of a soluble mouse iNKT‐cell TCR were assessed for mCD1d molecules refolded with α‐GalCer, ThrCer 6 and ThrCer 7. K d values (μM) were calculated from equilibrium binding. (B–D) Mice were immunized with 1 μg lipids i.v. and (B) IL‐4 and (C) IFN‐γ were detected by ELISA in blood sera at either 2 or 18 h, respectively. (D) At 18 h, immunized mice were sacrificed and splenocytes stained with anti‐CD11c and anti‐CD86 antibodies to determine the extent of maturation by the expression of CD86 on gated DCs (CD11c^+) using flow cytometry. (E and F) Mice were immunized i.v. with titrating doses of α‐GalCer, ThrCer, ThrCer 6, and ThrCer 7 and (E) IFN‐γ and (F) IL‐4 were detected in blood sera at 2, 12, and 18 h by ELISA. Median fluorescent intensity = MFI. (B–F) Data are shown as mean ± SEM (n = 3/group) and are representative of two independent experiments (A), three experiments (B–D), or a single experiment (E and F). *p < 0.05; Student's t‐test.
Concentrations of murine IFN‐γ and IL‐4 in serum were determined using standard sandwich ELISAs using the R4‐6A2 capture Ab for IFN‐γ (eBioscience), and the ID11 capture Ab for IL‐4 (Endogen). Biotinylated XMG1.2 (eBioscience) was used as the detection Ab for IFN‐γ and biotinylated BVD6‐24G2 (eBioscience) was used as the detection Ab for IL‐4. Human IFN‐γ in supernatants was determined using the capture Ab NIB42 (BD Pharmingen) and biotinylated 4S.B3 (BD Pharmingen) as the detection Ab.
Lipid compounds were solubilized in 150 mM NaCl and 0.5% Tween 20 (vehicle). All substances were diluted in PBS and administered either i.v., or i.m. Unless stated otherwise, doses used per injection were 400 μg OVA (Sigma) and 100 ng of lipid compounds or vehicle.
Human iNKT‐cells were expanded as described previously 34. For lipid titration studies, hCD1d C1R cells were pulsed with lipids overnight and following washes, cocultured with human iNKT cells. The presence of IFN‐γ was detected in supernatants by ELISA 12. For DC maturation studies, immature DCs were collected on day 4 and pulsed with lipids and iNKT cells 34. DC maturation was determined by the upregulation of CD86 by flow cytometry on a FACSCalibur with CellQuest software (BD) and analyzed with FlowJo software (Tree Star). For in vivo murine APC phenotype analysis the expression of CD86 or CD40 on CD11c^+ APCs from spleen were determined after 18 h post i.v. of 1 μg lipids on a CyAn cytometer and analyzed with FlowJo software (Tree Star).

[2] = tested on: human DC; test: Human DC maturation (CD86 upregulation) in coculture with human iNKT cells and lipids; format: cell-based; conditions: compared to ThrCer; comparable to α‐GalCer; 40 h
Protocol: Figure 1 ThrCer 6 and ThrCer 7 are potent human iNKT‐cell agonists and display a prolonged interaction with the iNKT‐cell TCR when in complex with human CD1d molecules. (A) The structures of α‐GalCer and non‐glycosidic analogs ThrCer, ThrCer 6, and ThrCer 7 are shown. (B) Equilibrium binding and kinetics measurements of a soluble human iNKT‐cell TCR were assessed for hCD1d molecules refolded with α‐GalCer, ThrCer, ThrCer 6, and ThrCer 7. K d values (μM) were calculated from equilibrium binding. (C and D) iNKT‐cell agonists were added to human CD1d C1R cells at various concentrations. After incubating overnight, the degree of iNKT‐cell recognition, assessed either (C) by using a tetrameric human iNKT‐cell TCR by flow cytometry or (D) by the addition of human iNKT cells to cultures and determining the amount of IFN‐γ released in supernatant by ELISA. (E) Human DC maturation was assessed following coculture with human iNKT cells and l μg lipids after 40 h, as determined by CD86 upregulation on DC by flow cytometry. Median fluorescent intensity = MFI. (D and E) Error bars are mean ± SEM (triplicate wells). […]
To this end, hCD1d‐expressing C1R cells were loaded overnight with serial dilutions of lipids (α‐GalCer, ThrCer, ThrCer 6, and ThrCer 7) and then incubated with human iNKT cells. iNKT‐cell activation was assessed by measuring IFN‐γ production in the supernatant by ELISA. […]

[3] = tested on: B16 melanoma cells; test: B16 melanoma lung metastasis model; format: in vivo, C57BL/6 mice; conditions: 1 and 0.1 ng i.v.; versus ThrCer; comparable protection at 1000‐fold lower dose than ThrCer
Protocol: To this end, mice were injected i.v. with a range of doses of lipids (100, 1, 0.1 ng) and 3 days later, challenged with i.v. injected 5 × 10^5 B16 melanoma cells. Fourteen days later, the metastasis load in the lungs was quantified. […] With a reduction in lipid dose, the extent of tumor metastasis burden increased to varying degrees.
(A) Mice were immunized with 100, 1, or 0.1 ng of lipids i.v. 3 days before receiving an i.v. challenge with 5 × 10^5 B16 melanoma cells (n = 4/group). Two weeks later the lungs were removed and the number of metastatic nodules quantified as described in section “Materials and methods”. Data in the three panels are shown as mean ± SEM of tumor area as percentage of total lung area, and are representative of two independent experiments. (B) Representative lung lobe from each group is shown. Photographic images are representative of four lung lobes in each of two independent experiments.
C57BL/6 mice were challenged i.v. with syngeneic B16F10 melanoma, resuspended in PBS. A total of 5 × 10^5 cells in 200 μL were administered 3 days after administration of indicated doses of iNKT‐cell agonists (100, 1, or 0.1 ng). Two weeks after challenge, mice were killed, lungs removed, imaged and the percentage of lung tumor metastases quantified using Adobe Photoshop®.

SMILES | Ability to activate murine iNKT cells and mature DC in vivo ([1]; 1 μg i.v., serum IL‐4 2 h, IFN‐γ 18 h, CD86 on CD11c+ DC, greater than ThrCer, similar to α‐GalCer) | DC maturation (CD40 on CD11c+ cells) in iNKT cell deficient mice ([1]; 1 μg i.v.) | Serum IFN‐γ secretion after intramuscular injection ([1]; i.m., 18 h post injection, compared with α‐GalCer) | Serum IFN‐γ secretion, in vivo dose titration ([1]; i.v., after 12 and 18 h, compared with α‐GalCer) | Human DC maturation (CD86 upregulation) [2] | Protection against B16 lung metastases at reduced lipid dose [3]
CCCCCCCCCCCCCCCCCCCCCCCCCC(=O)N[C@@H](CO[C@H]1CC[C@H](O)[C@H](O)[C@H]1O)[C@H](O)[C@H](O)CCCCCCCCCCCCCC [ThrCer 6] | marked increase | do not mature DCs | higher | significantly enhanced | improved ability | far greater protection
CCCCCCCCCCCCCCCCCCCCCCCCCC(=O)NC(COC1CCCC(O)C(O)C1O)C(O)C(O)CCCCCCCCCCCCCC (stereo not drawn) [ThrCer 7] | – | do not mature DCs | – | – | improved ability | –
CCCCCCCCCCCCCCCCCCCCCCCCCC(=O)N[C@@H](CO[C@H]1O[C@H](CO)[C@H](O)[C@H](O)[C@H]1O)[C@H](O)[C@H](O)CCCCCCCCCCCCCC [α‐GalCer, α‐galactosylceramide, reference compound] | – | – | – | – | – | far greater protection
